The test system of assay [1] is Streptococcus sp. 'group A'. The assay is described as follows: Streptococcus pyogenes SK(-)GAS viability under kanamycin – luminescence, BacTiterGlo, confirmation, counter-screen for streptokinase expression inhibitor project, dose response (AID 1900). The assay is classed as functional, organism-based. (A counterscreen serves to expose hits that act by an unwanted route or on another target.)

The test system of assay [2] is BJ. The assay is described as follows: BJ-TERT fibroblast viability loss – cell-based, RAS-independent, luminescence, dose response (AID 1933). Particulars: Homo sapiens. It counts as functional.
A further assay deals with Beta-galactosidase (Escherichia coli, UniProt Q8VNN2). The assay is described as follows: PubChem AID 485352. The assay is classed as functional.
Assay [3] has as its system BJ. The assay is described as follows: cells. It counts as functional, cell-based. Particulars: Homo sapiens.
Assay [4] concerns the target T1, Type-1 angiotensin II receptor (Homo sapiens, UniProt P30556).
T1 sequence (P30556 whole entry): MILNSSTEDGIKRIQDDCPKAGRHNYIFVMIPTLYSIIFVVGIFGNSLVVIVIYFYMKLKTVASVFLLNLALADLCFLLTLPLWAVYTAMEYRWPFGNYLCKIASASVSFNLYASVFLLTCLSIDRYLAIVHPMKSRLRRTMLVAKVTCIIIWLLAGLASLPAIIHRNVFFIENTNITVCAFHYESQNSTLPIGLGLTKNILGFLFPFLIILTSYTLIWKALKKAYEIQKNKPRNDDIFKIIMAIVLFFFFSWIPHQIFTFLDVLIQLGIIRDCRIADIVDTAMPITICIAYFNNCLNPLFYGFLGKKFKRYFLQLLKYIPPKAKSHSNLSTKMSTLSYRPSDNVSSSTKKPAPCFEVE
The assay can be described thus: antagonism of angiotensin II type 1 receptor – cell-based, uHTS hits, selectivity assay for APJ receptor antagonist project, dose response (AID 463214).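 Note: antagonist potency against angiotensin II stimulated AT1 response.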 It counts as functional.

Assay [5] has as its system BJ. The assay can be described thus: BJ-TERT-LT-ST fibroblast viability loss – cell-based, RAS-independent, luminescence, dose response (AID 1935).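 Note: BJ fibroblasts immortalized with TERT plus LT and ST oncogenes.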 The assay is classed as functional. As to conditions: Homo sapiens.
Assay [6] in a line: DRD fibroblast viability loss – cell-based, non-viral oncogenic, luminescence, dose response (AID 1934). The assay is classed as functional. Particulars: Homo sapiens.
Another assay deals with Streptococcus. The assay can be described thus: GAS UMAA2166 growth inhibition – luminescence, BacTiterGlo, counter-screen for streptokinase expression inhibitor project, dose response (AID 1915).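 Note: potency for reduction of bacterial viability or growth.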 The assay is classed as functional, organism-based.
The target in assay [7] is Heat shock protein HSP 90-alpha (Homo sapiens, UniProt P07900). It counts as functional, organism-based.
The target in assay [8] is T2, Carboxy-terminal domain RNA polymerase II polypeptide A small phosphatase 1 (Homo sapiens, UniProt Q9GZU7).
T2 sequence (Q9GZU7 whole entry): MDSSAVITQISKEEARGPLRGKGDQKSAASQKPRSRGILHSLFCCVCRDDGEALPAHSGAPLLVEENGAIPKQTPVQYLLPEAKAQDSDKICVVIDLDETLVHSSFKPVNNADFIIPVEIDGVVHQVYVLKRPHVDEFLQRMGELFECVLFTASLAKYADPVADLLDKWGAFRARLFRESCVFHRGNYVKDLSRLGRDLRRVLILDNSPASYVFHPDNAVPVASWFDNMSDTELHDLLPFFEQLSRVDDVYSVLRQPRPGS
The assay can be described thus: CTDSP1 inhibitors, concentration-response, biochemical, absorbance readout, ultra-high-throughput screen actives (AID 540297). The assay is classed as functional.

The target in assay [9] is T3, Fatty acid synthase (Homo sapiens, UniProt P49327). The assay can be described thus: inhibition of human FAS-TE enzyme activity – biochemical, endpoint fluorescence intensity, uHTS hits, dose response (AID 624327).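 Note: fluorescence from hydrolysis of an O-methyl fluorescein acyl ester substrate by the enzyme.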 It counts as functional.
Assay [10] concerns the target T3, Fatty acid synthase. The assay can be described thus: inhibition of human FAS-TE enzyme activity – biochemical, kinetic fluorescence intensity, dose response (AID 624326).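 Note: rate of fluorescence rise from hydrolysis of a fluorogenic O-methyl fluorescein ester substrate.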 The assay is classed as functional.

The source made the active and inactive calls. Cut-off read from the data, not from the text of the source, for most assays here: actives have a measured EC50 and inactives only a lower limit.

T3 sequence (P49327 whole entry): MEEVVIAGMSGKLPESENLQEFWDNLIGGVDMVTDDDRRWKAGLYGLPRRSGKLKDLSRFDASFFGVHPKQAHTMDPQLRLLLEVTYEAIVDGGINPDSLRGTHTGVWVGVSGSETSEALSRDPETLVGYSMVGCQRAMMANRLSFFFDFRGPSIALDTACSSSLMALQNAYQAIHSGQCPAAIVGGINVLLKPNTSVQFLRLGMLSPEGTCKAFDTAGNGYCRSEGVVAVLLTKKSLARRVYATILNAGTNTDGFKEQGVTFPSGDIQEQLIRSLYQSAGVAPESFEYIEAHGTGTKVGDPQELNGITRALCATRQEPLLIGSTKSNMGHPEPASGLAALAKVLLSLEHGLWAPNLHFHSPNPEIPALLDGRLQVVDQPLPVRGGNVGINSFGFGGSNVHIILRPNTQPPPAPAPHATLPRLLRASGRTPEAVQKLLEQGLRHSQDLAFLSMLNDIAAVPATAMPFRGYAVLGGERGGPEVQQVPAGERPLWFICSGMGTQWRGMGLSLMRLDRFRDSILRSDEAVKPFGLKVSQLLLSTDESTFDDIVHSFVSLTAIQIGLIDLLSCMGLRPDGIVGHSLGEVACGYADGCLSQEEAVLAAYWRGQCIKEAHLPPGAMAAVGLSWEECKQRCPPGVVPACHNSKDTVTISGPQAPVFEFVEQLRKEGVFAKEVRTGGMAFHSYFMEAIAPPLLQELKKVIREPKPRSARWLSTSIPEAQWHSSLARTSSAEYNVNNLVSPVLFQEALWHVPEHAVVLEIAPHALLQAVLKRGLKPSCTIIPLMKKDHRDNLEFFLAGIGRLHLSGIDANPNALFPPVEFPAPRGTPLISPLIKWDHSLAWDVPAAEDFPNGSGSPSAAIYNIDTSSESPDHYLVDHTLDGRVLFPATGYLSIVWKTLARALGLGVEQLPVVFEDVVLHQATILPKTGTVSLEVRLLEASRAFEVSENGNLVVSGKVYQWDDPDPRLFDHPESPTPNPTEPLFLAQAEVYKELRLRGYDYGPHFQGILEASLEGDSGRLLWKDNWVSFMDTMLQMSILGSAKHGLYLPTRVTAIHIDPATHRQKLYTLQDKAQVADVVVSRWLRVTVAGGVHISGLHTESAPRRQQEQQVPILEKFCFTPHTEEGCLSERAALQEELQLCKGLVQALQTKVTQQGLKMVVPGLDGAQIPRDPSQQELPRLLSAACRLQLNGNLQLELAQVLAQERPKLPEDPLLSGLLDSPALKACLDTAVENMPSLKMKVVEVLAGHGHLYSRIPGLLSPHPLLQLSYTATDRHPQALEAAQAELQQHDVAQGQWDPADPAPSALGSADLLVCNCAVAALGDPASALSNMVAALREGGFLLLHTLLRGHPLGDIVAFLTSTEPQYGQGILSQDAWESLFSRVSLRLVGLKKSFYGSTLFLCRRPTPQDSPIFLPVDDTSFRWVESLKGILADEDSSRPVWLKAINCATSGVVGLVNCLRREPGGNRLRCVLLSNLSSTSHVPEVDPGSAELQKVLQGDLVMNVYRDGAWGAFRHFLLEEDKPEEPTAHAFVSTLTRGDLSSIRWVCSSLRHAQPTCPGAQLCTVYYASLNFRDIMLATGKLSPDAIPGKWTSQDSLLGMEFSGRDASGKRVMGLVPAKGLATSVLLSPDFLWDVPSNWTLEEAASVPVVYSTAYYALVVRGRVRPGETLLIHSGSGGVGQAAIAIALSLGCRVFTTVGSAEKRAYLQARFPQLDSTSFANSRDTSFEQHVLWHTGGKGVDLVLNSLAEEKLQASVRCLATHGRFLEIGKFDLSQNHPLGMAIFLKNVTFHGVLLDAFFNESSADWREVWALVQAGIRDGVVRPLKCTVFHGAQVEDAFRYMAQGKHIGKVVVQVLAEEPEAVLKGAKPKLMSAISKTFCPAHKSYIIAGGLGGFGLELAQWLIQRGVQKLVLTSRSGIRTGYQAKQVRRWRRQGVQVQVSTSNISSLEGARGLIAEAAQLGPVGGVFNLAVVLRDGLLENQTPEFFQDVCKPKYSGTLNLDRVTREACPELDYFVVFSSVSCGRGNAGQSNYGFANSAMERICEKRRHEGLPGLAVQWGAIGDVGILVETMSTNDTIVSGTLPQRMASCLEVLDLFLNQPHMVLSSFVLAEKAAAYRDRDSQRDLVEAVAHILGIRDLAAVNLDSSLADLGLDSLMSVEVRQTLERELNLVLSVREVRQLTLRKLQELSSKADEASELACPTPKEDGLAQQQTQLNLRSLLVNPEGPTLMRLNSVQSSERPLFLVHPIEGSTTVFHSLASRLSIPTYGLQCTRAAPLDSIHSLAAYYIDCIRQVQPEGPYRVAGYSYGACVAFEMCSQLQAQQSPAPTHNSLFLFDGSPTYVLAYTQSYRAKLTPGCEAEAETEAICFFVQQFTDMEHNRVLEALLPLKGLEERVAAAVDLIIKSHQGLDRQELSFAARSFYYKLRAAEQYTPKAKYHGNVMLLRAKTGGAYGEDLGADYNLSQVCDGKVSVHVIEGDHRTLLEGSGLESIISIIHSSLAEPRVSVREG
Beta-galactosidase, sequence (Q8VNN2 whole entry): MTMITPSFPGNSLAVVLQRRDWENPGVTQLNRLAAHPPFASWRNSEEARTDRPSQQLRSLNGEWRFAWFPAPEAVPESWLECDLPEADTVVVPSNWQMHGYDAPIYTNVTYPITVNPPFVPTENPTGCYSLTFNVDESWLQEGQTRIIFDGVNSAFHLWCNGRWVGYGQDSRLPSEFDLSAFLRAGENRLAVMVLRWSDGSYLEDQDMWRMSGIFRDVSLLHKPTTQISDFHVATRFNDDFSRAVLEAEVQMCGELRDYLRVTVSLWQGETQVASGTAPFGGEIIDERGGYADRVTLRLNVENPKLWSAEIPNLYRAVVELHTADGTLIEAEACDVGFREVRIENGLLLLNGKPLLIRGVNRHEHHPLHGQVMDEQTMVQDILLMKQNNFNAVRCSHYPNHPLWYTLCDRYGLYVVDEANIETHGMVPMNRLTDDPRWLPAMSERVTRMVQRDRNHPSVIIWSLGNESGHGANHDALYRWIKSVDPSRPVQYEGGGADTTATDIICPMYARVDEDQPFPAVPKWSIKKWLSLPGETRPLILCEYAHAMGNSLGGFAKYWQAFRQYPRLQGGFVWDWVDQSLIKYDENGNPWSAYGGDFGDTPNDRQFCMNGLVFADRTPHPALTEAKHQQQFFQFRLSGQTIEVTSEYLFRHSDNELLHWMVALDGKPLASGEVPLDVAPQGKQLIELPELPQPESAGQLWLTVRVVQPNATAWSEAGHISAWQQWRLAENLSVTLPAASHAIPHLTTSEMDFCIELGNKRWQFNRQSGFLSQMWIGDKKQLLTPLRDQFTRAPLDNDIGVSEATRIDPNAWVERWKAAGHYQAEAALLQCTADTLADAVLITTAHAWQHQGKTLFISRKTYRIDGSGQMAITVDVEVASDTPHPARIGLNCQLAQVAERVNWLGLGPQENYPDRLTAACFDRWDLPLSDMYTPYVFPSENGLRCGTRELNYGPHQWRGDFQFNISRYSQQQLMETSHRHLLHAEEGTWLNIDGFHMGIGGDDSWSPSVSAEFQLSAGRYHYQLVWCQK

A word on the EC50: it is the concentration at which the effect is half-maximal. The IC50 is the midpoint of a concentration-inhibition curve. As usually defined, the AC50 is the concentration at which the activity in the assay is half-maximal. As to `Oc1cccc2ccc(/C=C/c3ccccc3Cl)nc12`, the half-maximal effective concentration (EC50) is 0.345 µM (active) in assay [1]; 12.9 µM (active) in the assay with BJ [2]; > 40 µM (inactive) on Beta-galactosidase; 28.5 µM (active) with BJ [3]; > 150 µM (inconclusive) in the assay with BJ [5]; 32.6 µM (active) in assay [6]. In addition, in the assay with Streptococcus, the EC50 is 1.3 µM (active). The IC50 in assay [4] was 32.3 µM (not active). In addition, the AC50 in assay [7] was 11.6 µM (active).
As for `O=C(CCCC(=O)Nc1cccc(Br)c1)N/N=C/c1cc([N+](=O)[O-])ccc1O`, the EC50 on Beta-galactosidase was > 40 µM (inactive). Moreover, the IC50 in assay [4] was > 40 µM (not active); in [8] it was 6.26 µM (active); at Fatty acid synthase [9], 10 µM (active); at Fatty acid synthase [10], 7.42 µM (active).

(Values after ChEMBL document CHEMBL1201862, “PubChem BioAssay data set” (2004).)
